Experimental data reported in ChEMBL document CHEMBL3585254, “Synthesis and structural characterization of natural benzofuranoids” (J Nat Prod, 2015).
pIC50: −log10 of the molar value.

System: HL-60
Assay: Growth inhibition of human HL60 cells
Format: functional, cell-based

pIC50: 6.89
Structure (SMILES): CC(C)=C1Oc2c(ccc(CC(C)O)c2CO)C1=O (stereo unspecified) [USTUSORANE A]
